Data: patent US11166959B2, “Isofuranone compounds useful as HPK1 inhibitors” (BRISTOL-MYERS SQUIBB COMPANY, priority 2017, dated 2021)
pIC50: −log10 of the molar value. Read-outs that look alike come from different tables or passages of the source.

Experiments:
HPK1 = biological target: T1, HPK1 (Homo sapiens, UniProt Q92918); experiment: HPK1 Inhibition Assay (kinase reaction, Caliper capillary electrophoresis); format: biochemical; conditions: for IRAK4/HPK1 Ratio: ratio of the IRAK4 IC50 value to the HPK1 IC50 value
T1 construct: purchased SignalChem M23-11G
T1 sequence (Q92918 1-346 limits assumed): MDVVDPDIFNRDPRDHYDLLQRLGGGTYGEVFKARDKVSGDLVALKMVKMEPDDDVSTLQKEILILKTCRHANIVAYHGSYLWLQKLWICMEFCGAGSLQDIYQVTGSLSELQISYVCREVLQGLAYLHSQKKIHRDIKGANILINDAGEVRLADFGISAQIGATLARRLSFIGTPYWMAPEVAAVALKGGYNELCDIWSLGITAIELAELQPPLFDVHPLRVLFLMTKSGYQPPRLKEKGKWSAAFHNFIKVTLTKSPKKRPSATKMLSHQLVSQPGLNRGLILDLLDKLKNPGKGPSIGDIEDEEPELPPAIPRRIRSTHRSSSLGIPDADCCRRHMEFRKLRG
How it was run: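 Kinase reactions ran 3 h and were stopped with 1 mM EDTA, with enzyme level and time set for at most 20-30% peptide substrate conversion. Phosphorylated and unphosphorylated peptide were separated by capillary electrophoresis to measure conversion. IC50 derived from 11 compound concentrations.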

IRAK4 = biological target: T2, IRAK4 (Homo sapiens, UniProt Q9NWZ3); experiment: IRAK4 Inhibition Assay (kinase reaction, Caliper capillary electrophoresis); format: biochemical; conditions: 500 μM ATP, 11 concentrations
T2 construct: 1 nM IRAK4 (160-460); purchased SignalChem M24016
T2 sequence (Q9NWZ3 160-460): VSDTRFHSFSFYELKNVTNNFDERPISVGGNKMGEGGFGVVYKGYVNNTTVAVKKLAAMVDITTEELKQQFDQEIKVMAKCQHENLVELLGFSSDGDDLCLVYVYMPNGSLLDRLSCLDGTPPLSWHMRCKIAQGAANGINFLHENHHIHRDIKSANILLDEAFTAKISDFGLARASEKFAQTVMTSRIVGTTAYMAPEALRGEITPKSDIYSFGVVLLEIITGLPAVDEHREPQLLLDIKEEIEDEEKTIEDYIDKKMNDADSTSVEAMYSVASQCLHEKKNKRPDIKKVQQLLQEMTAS

[1] = 0.625 nM HPK1, 22 μM ATP, 11 concentrations, read-out: HPK1 IC50

| SMILES | pIC50 (HPK1; [1]) | IRAK4/HPK1 Ratio (HPK1) | pIC50 (IRAK4) | pIC50 (HPK1) |
| --- | --- | --- | --- | --- |
| CC1(C)OC(=O)c2ccc(Nc3ncc(C(=O)NC[C@@]4(O)CN5CCC4CC5)c(N[C@H](CO)c4ccccc4)n3)cc21 [Example 24, 2-[(3,3-dimethyl-1-oxo-1,3-dihydro-2-benzofuran-5-yl)amino]-N-{[(3R)-3-hydroxy-1-azabicyclo[2.2.2]octan-3-yl]methyl}-4-{[(1S)-2-hydroxy-1-phenylethyl]amino}pyrimidine-5-carboxamide] | – | B (B=10 to 50) | 6.00 to 6.60 | > 7.30 |
| Cc1noc(-c2cnc(Nc3ccc4c(c3)C(C)(C)OC4=O)nc2Nc2ccc3[nH]ncc3c2)n1 [Example 74, 5-({4-[(1H-indazol-5-yl)amino]-5-(3-methyl-1,2,4-oxadiazol-5-yl)pyrimidin-2-yl}amino)-3,3-dimethyl-1,3-dihydro-2-benzofuran-1-one] | 6.60 to 7.30 | B (B=10 to 50) | 6.00 to 6.60 | – |
| CC1(C)OC(=O)c2ccc(Nc3ncc(-c4nnc(C5(OC(=O)N6CC(F)(F)C6)CC5)o4)c(N[C@H](CO)c4ccccc4)n3)cc21 [Example 70, 1-(5-{2-[(3,3-dimethyl-1-oxo-1,3-dihydro-2-benzofuran-5-yl)amino]-4-{[(1S)-2-hydroxy-1-phenylethyl]amino}pyrimidin-5-yl}-1,3,4-oxadiazol-2-yl)cyclopropyl 3,3-difluoroazetidine-1-carboxylate] | 6.60 to 7.30 | B (B=10 to 50) | 6.00 to 6.60 | – |
| CC1(C)OC(=O)c2ccc(Nc3cc(N[C@H](CO)c4ccccc4)c(-c4nnc(C5CC5)o4)cn3)nc21 [Example 86, 2-{[5-(5-cyclopropyl-1,3,4-oxadiazol-2-yl)-4-{[(1S)-2-hydroxy-1-phenylethyl]amino}pyridin-2-yl]amino}-7,7-dimethyl-5H,7H-furo[3,4-b]pyridin-5-one] | > 7.30 | B (B=10 to 50) | 6.60 to 7.30 | – |
| CC(C)CNC(=O)c1cnc(Nc2ccc3c(c2)C(C)(C)OC3=O)nc1N[C@H](CO)c1ccccc1 [Example 12, 2-[(3,3-dimethyl-1-oxo-1,3-dihydro-2-benzofuran-5-yl)amino]-4-{[(1S)-2-hydroxy-1-phenylethyl]amino}-N-(2-methylpropyl)pyrimidine-5-carboxamide] | > 7.30 | B (B=10 to 50) | 6.00 to 6.60 | – |
| CC1(C)OC(=O)c2ccc(Nc3ncc(-c4nnc(-c5cccnn5)o4)c(N[C@H](CO)c4ccccc4)n3)cc21 [Example 67, 5-[(4-{[(1S)-2-hydroxy-1-phenylethyl]amino}-5-[5-(pyridazin-3-yl)-1,3,4-oxadiazol-2-yl]pyrimidin-2-yl)amino]-3,3-dimethyl-1,3-dihydro-2-benzofuran-1-one] | > 7.30 | B (B=10 to 50) | 6.60 to 7.30 | – |
| CC1(C)OC(=O)c2ccc(Nc3ncc(-c4n[nH]c(=O)o4)c(N[C@H](CO)c4ccccc4)n3)cc21 [Example 52, 5-{2-[(3,3-dimethyl-1-oxo-1,3-dihydro-2-benzofuran-5-yl)amino]-4-{[(1S)-2-hydroxy-1-phenylethyl]amino}pyrimidin-5-yl}-2,3-dihydro-1,3,4-oxadiazol-2-one] | > 7.30 | C (C=>50) | 6.00 to 6.60 | – |
| Cc1ccccc1CNC(=O)c1cnc(Nc2ccc3c(c2)C(C)(C)OC3=O)nc1N[C@H](CO)c1ccccc1 [Example 16, 2-[(3,3-dimethyl-1-oxo-1,3-dihydro-2-benzofuran-5-yl)amino]-4-{[(1S)-2-hydroxy-1-phenylethyl]amino}-N-[(2-methylphenyl)methyl]pyrimidine-5-carboxamide] | 6.60 to 7.30 | B (B=10 to 50) | 6.00 to 6.60 | – |
| CC1(C)OC(=O)c2ccc(Nc3ncc(-c4nc(N5CCOCC5)no4)c(N[C@H](CO)c4ccccc4)n3)cc21 [Example 31, 5-[(4-{[(1S)-2-hydroxy-1-phenylethyl]amino}-5-[3-(morpholin-4-yl)-1,2,4-oxadiazol-5-yl]pyrimidin-2-yl)amino]-3,3-dimethyl-1,3-dihydro-2-benzofuran-1-one] | > 7.30 | C (C=>50) | 6.60 to 7.30 | – |

Further lines, with some results ahead:

| pIC50 (HPK1; [1]) | IRAK4/HPK1 Ratio (HPK1) | pIC50 (IRAK4) | SMILES | pIC50 (HPK1) |
| --- | --- | --- | --- | --- |
| > 7.30 | B (B=10 to 50) | 6.00 to 6.60 | CC1(C)OC(=O)c2ccc(Nc3ncc(C(=O)NCC4CC(F)(F)C4)c(N[C@H](CO)c4ccccc4)n3)cc21 [Example 4, N-[(3,3-difluorocyclobutyl)methyl]-2-[(3,3-dimethyl-1-oxo-1,3-dihydro-2-benzofuran-5-yl)amino]-4-{[(1S)-2-hydroxy-1-phenylethyl]amino}pyrimidine-5-carboxamide] | – |
| > 7.30 | C (C=>50) | 6.00 to 6.60 | CC1(C)OC(=O)c2ccc(Nc3ncc(C(=O)NNC(=O)C4CC4)c(N[C@H](CO)c4ccccc4)n3)cc21 [Example 62, (S)—N′-(cyclopropanecarbonyl)-2-((3,3-dimethyl-1-oxo-1,3-dihydroisobenzofuran-5-yl)amino)-4-((2-hydroxy-1-phenylethyl)amino)pyrimidine-5-carbohydrazide] | – |
| > 7.30 | C (C=>50) | 6.60 to 7.30 | CC1(C)OC(=O)c2ccc(Nc3ncc(-c4nc(C5(CO)CC5)no4)c(N[C@H](CO)c4ccccc4)n3)cc21 [Example 38, 5-[(4-{[(1S)-2-hydroxy-1-phenylethyl]amino}-5-{3-[1-(hydroxymethyl)cyclopropyl]-1,2,4-oxadiazol-5-yl}pyrimidin-2-yl)amino]-3,3-dimethyl-1,3-dihydro-2-benzofuran-1-one] | – |
| > 7.30 | B (B=10 to 50) | 6.00 to 6.60 | O=C1OCc2cc(Nc3ncc(-c4ncccn4)c(N[C@H](CO)c4ccccc4)n3)ccc21 [Example 1, 5-[(4′-{[(1S)-2-hydroxy-1-phenylethyl]amino}-[2,5′-bipyrimidine]-2′-yl)amino]-1,3-dihydro-2-benzofuran-1-one] | – |
| > 7.30 | C (C=>50) | 6.00 to 6.60 | CN(C)C12CC(c3noc(-c4cnc(Nc5ccc6c(c5)C(C)(C)OC6=O)nc4N[C@H](CO)c4ccccc4)n3)(C1)C2 [Example 48, 5-[(5-{3-[3-(dimethylamino)bicyclo[1.1.1]pentan-1-yl]-1,2,4-oxadiazol-5-yl}-4-{[(1S)-2-hydroxy-1-phenylethyl]amino}pyrimidin-2-yl)amino]-3,3-dimethyl-1,3-dihydro-2-benzofuran-1-one] | – |
| > 7.30 | B (B=10 to 50) | 6.00 to 6.60 | CCOC(=O)c1cnc(Nc2ccc3c(c2)C(C)(C)OC3=O)nc1NCc1ccccc1C(C)(C)O [Example 71, Ethyl 2-[(3,3-dimethyl-1-oxo-1,3-dihydro-2-benzofuran-5-yl)amino]-4-({[2-(2-hydroxypropan-2-yl)phenyl]methyl}amino)pyrimidine-5-carboxylate] | – |
| > 7.30 | C (C=>50) | 6.60 to 7.30 | CC(C)(O)c1nnc(-c2cnc(Nc3ccc4c(c3)C(C)(C)OC4=O)nc2N[C@H](CO)c2ccccc2)o1 [Example 61, 5-[(4-{[(1S)-2-hydroxy-1-phenylethyl]amino}-5-[5-(2-hydroxypropan-2-yl)-1,3,4-oxadiazol-2-yl]pyrimidin-2-yl)amino]-3,3-dimethyl-1,3-dihydro-2-benzofuran-1-one] | – |
| > 7.30 | C (C=>50) | 6.00 to 6.60 | CC(=O)NC12CC(c3noc(-c4cnc(Nc5ccc6c(c5)C(C)(C)OC6=O)nc4N[C@H](CO)c4ccccc4)n3)(C1)C2 [Example 49, N-[3-(5-{2-[(3,3-dimethyl-1-oxo-1,3-dihydro-2-benzofuran-5-yl)amino]-4-{[(1S)-2-hydroxy-1-phenylethyl]amino}pyrimidin-5-yl}-1,2,4-oxadiazol-3-yl)bicyclo[1.1.1]penta-1-yl]acetamide] | – |
| > 7.30 | B (B=10 to 50) | 6.00 to 6.60 | CC1(C)OC(=O)c2ccc(Nc3ncc(C(=O)NCCCn4ccnc4)c(N[C@H](CO)c4ccccc4)n3)cc21 [Example 19, 2-[(3,3-dimethyl-1-oxo-1,3-dihydro-2-benzofuran-5-yl)amino]-4-{[(1S)-2-hydroxy-1-phenylethyl]amino}-N-[3-(1H-imidazol-1-yl)propyl]pyrimidine-5-carboxamide] | – |
